Measured values from patent US20120283096A1, “AGENT FOR IMPROVING PLANT GROWTH, SEEDS, AND METHOD FOR IMPROVING PLANT GROWTH” (Incorporated Administrative Agency National Agricu lture …, priority 2010, published 2012).
Like-named read-outs stand apart in the source and are kept apart here.

What was measured:
[1] = Molybdenum concentration of aqueous solutions/supernatants measured by ICP-AES versus calculated values (FIGS. 5 and 6); format: physicochemical; conditions: water, FIG. 6
Description: Similarly, aqueous solutions of the slightly-soluble molybdenum-containing substances (as indicated by “Slightly-soluble” in the column “Water solubility” in Table 1) in varying concentrations were prepared. […] In particular, ammonium molybdophosphate (MoPNH), which is a salt of a heteroacid, stops dissolving at a molybdenum amount of approximately 0.2 mM or higher, and can therefore be kept at an especially low concentration.

sulfide ion generation = test: Inhibition of sulfide ion generation, paddy seeds covered with slightly-soluble substances (Example 2-3, FIG. 9); conditions: approximately 0.1 mmol/g (per dry seeds) in terms of molybdenum or tungsten
Text: The water on slightly germinated seeds was lightly wiped off, and immediately after that, the seeds were put with (lightly covered with) various amounts of the slightly-soluble substances shown in Table 1. […] The number of days for which sulfide ion generation was inhibited and the proportion of seedling establishment were examined.

paddy seeds = test: Possibility of growth of paddy seeds in tank farming without soil (Example 3); conditions: in vivo
Description: (§1) The decay-inhibiting effect of molybdenum-containing substances in tank farming without soil was examined.
(§2) The possibility of growth and the inhibition of decay were determined in the same manner as above.

decay of paddy seeds = test: Decay-inhibiting effect in tank farming without soil (Example 3); conditions: seeds covered with substance, soaked two weeks in water at 30° C.
Description: as §1, §2

barley [2] = test: Seedling establishment of barley seeds with ammonium molybdophosphate (Example 5, FIG. 12); format: in vivo; conditions: 20° C. and 30° C., after two weeks
Description: (§3) As in Example 4-1, ammonium sulfate in an equivalent amount of 10 g/m^2 in terms of nitrogen and potassium chloride equivalent to 5 g/m^2 of potassium as potassium oxide were added as a solution to paddy humid soil, on the condition that the weight of dry soil is 100 kg/m^2. The soil was placed into each container (in the shape of a cylinder approximately 7 cm in diameter) in an amount equivalent to 100 g of dry soil, shaken for approximately one hour, and left at rest for two days at 4° C. It should be noted, however, that the soil-to-liquid ratio was 0.7. On this condition, the soil surface became substantially as high as the water surface. Barley seeds (branded as Nishinochikara) and soybean seeds (branded as Fukuyutaka) not subjected to treatment such as soaking in advance were soaked in water for one minute. Immediately after the extra water was removed, the seeds were put with a […] molybdenum amount of ammonium molybdophosphate (purchased from Wako Pure Chemical Industries, Ltd.) per gram of dry seed. The seeds were then half-buried in the samples of soil. […] Six containers were allotted for each condition, and the proportion of seedling establishment (proportion of individual plants that survived) was measured after two weeks.

soybean = test: Seedling establishment of soybean seeds with ammonium molybdophosphate (Example 5, FIG. 12); format: in vivo; conditions: 20° C. and 30° C., after two weeks
Description: as §3

barley [3] = test: Seedling establishment of barley seeds in humid soil (Example 6-1, FIG. 20a); format: in vivo; conditions: 0.01 mmol to 0.5 mmol molybdenum per gram of dry seed, 20° C., after two weeks
Description: (§4) As in Example 4-1, ammonium sulfate in an equivalent amount of 10 g/m^2 in terms of nitrogen and potassium chloride equivalent to 5 g/m^2 of potassium as potassium oxide were added as a solution to paddy humid soil in terms of 100 kg/m^2 of dry soil with a soil-to-liquid ratio of 0.7. The soil was placed into each container (in the shape of a cylinder approximately 7 cm in diameter) in an amount equivalent to 100 g of dry soil. The soil surface was flattened by giving it a slight press with a flat plate. Then, the soil was left at rest for one day at 4° C. […] The seeds were then half-buried in the soil. After that, at a constant temperature of 20° C., the water level was kept by adding water to such an extent that the seeds were slightly covered with water. Six containers were allotted for each condition, and the proportion of seedling establishment (proportion of individual plants that survived) was measured after two weeks. It should be noted that in each of FIGS. 20a and 20b, the horizontal axis represents the number of moles (mmol) of molybdenum that adhered per gram of dry seed. In each of FIGS. 20a and 20b, the dots correspond to the numbers of moles of 0, 0.01, 0.02, 0.05, 0.1, 0.2, and 0.5 mmol, starting from the left. […]

wheat = test: Seedling establishment of wheat seeds in humid soil (Example 6-1, FIG. 20b); format: in vivo; conditions: 0.01 mmol to 0.5 mmol molybdenum per gram of dry seed, 20° C., after two weeks
Description: as §4

barley [4] = test: Avoidance of wet damage to barley in a poorly-drained paddy field (Example 7, FIG. 21); format: in vivo
Text: To a poorly-drained paddy field in Chikugo City, Fukuoka Prefecture, 1.2 t/10 a of cow manure and ammonium sulfate in an equivalent amount of 6 kg/10 a in terms of nitrogen were applied. In November 2009, 9 kg/10 a of barley seed (branded as Nishinochikara) was planted. In February 2010, the paddy field was partitioned by corrugated plates into eight areas 50 cm×70 cm each. On Feb. 19, 2010 or Mar. 17, 2010, ammonium molybdophosphate was applied in equivalents amounts of 0, 0.03, 0.1, 0.3 mol/m^2 in terms of molybdenum. On May 11, 2010, the shoots of the barley in the areas partitioned from one another by the corrugated plates were harvested, and the dry weight was obtained.

[5] = in water, powder, trihydrate, cited from earlier work

Triammonium 12-moblydo(VI)phosphate trihydrate [Ammonium molybdophosphate]
molybdenum amount at which the substance stops dissolving [1]: approximately 0.2 mM
number of days for which sulfide ion generation was inhibited (sulfide ion generation): fourteen
Possibility of growth, Amount of molybdenum or tungsten added to seed (paddy seeds): > 1 mmol/g
Inhibition of decay, Amount of molybdenum or tungsten added to seed (decay of paddy seeds): <0.01 mmol/g
proportion of seedling establishment (barley [2]): improvements in proportion of seedling establishment
proportion of seedling establishment (soybean): improvements in proportion of seedling establishment
proportion of seedling establishment (barley [3]): improvements in proportion of seedling establishment
proportion of seedling establishment (wheat): improvements in proportion of seedling establishment
dry weight of the shoots at harvest time, trend with amount applied (barley [4]; 0.03 to 0.3 mol/m^2 in terms of molybdenum): increase in dry weight of the shoots
dry weight of the shoots at harvest time (barley [4]; approximately 0.3 mol/m^2 molybdenum applied in February): approximately 0.25 kg/m^2
Water solubility ([5]; listed as ammonium molybdophosphate): slightly soluble
Water solubility [5]: Slightly soluble (has a percentage of solubility of 10% by weight or lower with respect to water)
